Usually IC50 stands for the concentration that inhibits the measured activity by half. One may read the Ki as a dissociation constant, usually derived from enzyme kinetics or from competition with a known ligand.

The subject of one data set is HepG2-NTCP cells. Description: Cytotoxicity assay (Cell-titer-GLO Luminescent Cell Viability Assay). It counts as cell-based, human. The procedure:
(§1) The IC50 of kinase inhibitors was determined using the Cell-titer-GLO Luminescent Cell Viability Assay kit (Promega, Madison, WI, USA) according to the recommendations from the manufacturer. Briefly, 10,000 HepG2-NTCP cells were seeded into a 96-well plate before treatment with various kinase inhibitor concentrations. Cell viability was assayed at 24 h post-treatment.

The test system of data set [1] is HBV infection in HepG2-NTCP cells. Nature of the data set: HBV pgRNA level by real-time qPCR in kinase inhibitor treated HBV infected HepG2-NTCP. The class given is cell-based, Hepatitis B virus. As to conditions: for HBV pgRNA Fold change (Treated/DMSO) / effect on pgRNA level (in words): 1 µM; for effect on pgRNA level (in words): both four dpi and seven dpi. The text has this: (§2) HBV were generated from a stable transfected hepablastoma cell line (Hep38.7) that expresses HBV as described previously. Briefly, Hep38.7 (tet-off) cells were induced to produce HBV particles through tetracycline withdrawal. Twelve days after tetracycline removal, culture media containing HBV were harvested and filtered through a 0.22 µm polyethersulfone (PES) membrane filter (Corning, New York, NY, USA). The virus supernatant was then concentrated using a heparin column and eluted with high salt, followed by overnight dialysis in phosphate-buffered saline (PBS). Real-time quantitative PCR was used to quantify the genome copy number of the HBV DNA. For infection, HepG2-NTCP cells at 70% confluence 1-day post-seeding were first treated with synchronisation medium consisting of complete medium with 3% DMSO and 500 µM L-Mimosin for 24 h. the cells were then incubated for 30 min with complete medium containing 800 µM of EGTA at 37 °C in a humidified 5% CO2 incubator. After the removal of EGTA-containing medium, the cells were infected with HBV at a multiplicity of infection (MOI) of 3000 in the presence of 4% PEG 8000 and 2.5% DMSO in DMEM/F12 medium supplemented with 2% FBS for 24 h. For the mock infection, cells were incubated for 24-hour in 4% PEG 8000, 2.5% DMSO in DMEM/F12 medium supplemented with 2% FBS. Upon virus removal followed by washing with PBS four times, HBV-infected cells were cultured in post-infection medium consisting of DMEM/F12 medium with 2% FBS and 1% DMSO. The post-infection medium was replaced at four days post-infection (dpi) and infected cells were harvested at day seven dpi. For phosphoproteome analysis, five biological replicates each of mock and HBV-infected HepG2-NTCP were used.
Total RNA was extracted using the RNeasy Mini Kit (Qiagen, Hilden, Germany) and digested with DNase according to the manufacturer’s protocol. For cDNA synthesis, 250–400 ng of total RNA was reverse transcribed with the iScript cDNA Synthesis Kit (Bio-Rad, Hercules, CA, USA) following the manufacturer’s protocol. cDNA was adjusted to 5 ng/µL using nuclease-free water and 2 μL of cDNA per reaction was used for qPCR analysis. Total DNA was extracted from the cells using the DNeasy Blood and Tissue Kit (Qiagen, Hilden, Germany) according to the manufacturer’s protocol.
To determine pgRNA level after HBV infection, HBV pgRNA was quantified by real-time qPCR using two HBV-specific primers: pgRNA-Forward, 5′-[…]-3′, and pgRNA-Reverse, 5′-[…]-3′ [49]. The housekeeping gene, GAPDH, was amplified using GAPDH forward primer 5′-[…]-3′ and GAPDH reverse primer 5′-[…]-3′. The relative fold change of pgRNA between conditions was determined using the ΔΔct method. Real-time qPCR was performed with iTaq Universal SYBR Green Supermix (Bio-Rad, Hercules, CA, USA). To determine the copy number of intracellular cccDNA, a probe-based qPCR approach was used. cccDNA was amplified using cccDNA forward primer 5′-[…]-3′ and cccDNA reverse primer 5′-[…]-3′. The Taqman probe 56, FAM/[…]/ZEN/[…]/3IABkFQ was used. The cccDNA copy number was determined using a standard curve approach with a 10× serial-diluted cccDNA template, starting from 10ng (Standard rang 1 fg to 1 ng). The reaction was carried out using the Luna Univeral Probe qPCR mix (NEB, Ipswich, MA, USA). To determine the level of HBeAg secretion, the HBeAg CLIA kit (Autobio diagnostic, Zhengzhou, China) was used. This assay was performed on 50 µL of medium harvested at four or seven dpi. All experiments were performed in triplicates and repeated twice for two additional biological replicates. The p-value was calculated using Student’s t-test (two-tailed, * p-value < 0.05, ** p-value < 0.01).
HBV infection on HepG2-NTCP was carried out as described earlier. At one dpi, the kinase inhibitors (Table 1) were added to the post-infection medium after the washing and removal of viruses containing infection medium. […]
(Real-time PCR tracks product formation cycle by cycle.)

Data set [2] shares this test system. Description: Intracellular cccDNA by probe-based qPCR in kinase inhibitor treated HBV infected HepG2-NTCP. It counts as cell-based. Particulars: 1 µM.
Text: as §2
Total RNA was extracted using the RNeasy Mini Kit (Qiagen, Hilden, Germany) and digested with DNase according to the manufacturer’s protocol. For cDNA synthesis, 250–400 ng of total RNA was reverse transcribed with the iScript cDNA Synthesis Kit (Bio-Rad, Hercules, CA, USA) following the manufacturer’s protocol. cDNA was adjusted to 5 ng/µL using nuclease-free water and 2 μL of cDNA per reaction was used for qPCR analysis. […]
To determine pgRNA level after HBV infection, HBV pgRNA was quantified by real-time qPCR using two HBV-specific primers: pgRNA-Forward, 5′-[…]-3′, and pgRNA-Reverse, 5′-[…]-3′ [49]. […] The relative fold change of pgRNA between conditions was determined using the ΔΔct method. […] The cccDNA copy number was determined using a standard curve approach with a 10× serial-diluted cccDNA template, starting from 10ng (Standard rang 1 fg to 1 ng). […] The p-value was calculated using Student’s t-test (two-tailed, * p-value < 0.05, ** p-value < 0.01). […]

Data set [3] has the same test system. Nature of the data set: HBeAg secretion (HBeAg CLIA kit) in kinase inhibitor treated HBV infected HepG2-NTCP. The class given is cell-based. Particulars: 1 µM.
Text: as §2
To determine pgRNA level after HBV infection, HBV pgRNA was quantified by real-time qPCR using two HBV-specific primers: pgRNA-Forward, 5′-[…]-3′, and pgRNA-Reverse, 5′-[…]-3′ [49]. The housekeeping gene, GAPDH, was amplified using GAPDH forward primer 5′-[…]-3′ and GAPDH reverse primer 5′-[…]-3′. The relative fold change of pgRNA between conditions was determined using the ΔΔct method. Real-time qPCR was performed with iTaq Universal SYBR Green Supermix (Bio-Rad, Hercules, CA, USA). To determine the copy number of intracellular cccDNA, a probe-based qPCR approach was used. cccDNA was amplified using cccDNA forward primer 5′-[…]-3′ and cccDNA reverse primer 5′-[…]-3′. The Taqman probe 56, FAM/[…]/ZEN/[…]/3IABkFQ was used. The cccDNA copy number was determined using a standard curve approach with a 10× serial-diluted cccDNA template, starting from 10ng (Standard rang 1 fg to 1 ng). […] The p-value was calculated using Student’s t-test (two-tailed, * p-value < 0.05, ** p-value < 0.01). […]

The next data set deals with CLKs. As to conditions: target CLKs; reported value, no reference given; cited from earlier work.
A short description of data set [4]: Cytotoxicity assay (Cell-titer-GLO Luminescent Cell Viability Assay). As to conditions: human, HepG2-NTCP cells; HepG2-NTCP, cell viability 24 h post-treatment. The class given is cell-based, human. The procedure:
as §1

For the next data set, the target named is CDK2. Particulars: target CDK2; reported value, no reference given; cited from earlier work.
For a further data set, the target named is CDK5. Particulars: target CDK5; reported value, no reference given; cited from earlier work.
Another data set deals with CDK1. Particulars: target CDK1; reported value, no reference given; cited from earlier work.

Take `CN(C)c1nc2c(Br)c(Br)c(Br)c(Br)c2[nH]1` [DMAT]: the IC50 in the data set with HepG2-NTCP cells was more than 500 µM. In addition, the “effect on pgRNA transcription (in words)” value in data set [1] (10 µM, both four and seven dpi) is on record as “reduction of pgRNA transcription”.
In the case of `Cn1cc(-c2ccc3occ(-c4ccccc4-c4ccccc4)c3n2)cn1` [MU140], the “Intracellular cccDNA Fold change (Treated/DMSO)” value was found to be 0.894 in [2] (4dpi) and 0.930 in data set [2] (7dpi). The “HBV pgRNA Fold change (Treated/DMSO)” value in [1] (4dpi) turned out to be 1.014; in data set [1] (7dpi), 1.114. In data set [1], the “effect on pgRNA level (in words)” value is “no such reduction”. Besides, the “HBeAg Titer Fold change (Treated/DMSO)” value is listed as 0.904 in [3] (4dpi) and 0.993 in data set [3] (7dpi).
`Cn1cc(-c2ccc3occ(-c4cccc(-c5ccncc5)c4)c3n2)cn1` [MU1210]: the “Intracellular cccDNA Fold change (Treated/DMSO)” value in data set [2] (4dpi) worked out at 0.678; in [2] (7dpi), 0.479. Besides, the Ki on CLKs was 0.023 µM. Half-maximal inhibition in data set [4] (IC50 at 24 h) was put at 16.7 µM. Besides, the “HBV pgRNA Fold change (Treated/DMSO)” value in data set [1] (4dpi) amounted to 0.406; in data set [1] (7dpi), 0.709. Besides, the “effect on pgRNA level (in words)” value in [1] is given as “reduction in the pgRNA level”. Also, the “HBeAg Titer Fold change (Treated/DMSO)” value stood at 0.415 in data set [3] (4dpi) and 0.105 in data set [3] (7dpi).
As to `Nc1cc(Nc2ccc(S(N)(=O)=O)cc2)ncn1` [PNU112455A11], in the data set on HepG2-NTCP cells, the IC50 is more than 500 µM. The figures for the Ki at CDK2 and on CDK5 were 3.2 µM and 3.6 µM, respectively.
With `O=C1NC(=NCc2cccs2)S/C1=C\c1ccc2ncccc2c1` [RO-3306], on CDK1, the Ki is 0.035 µM.

Values taken from publication PMC9104152, “Phosphoproteomics Unravel HBV Triggered Rewiring of Host Phosphosignaling Events” (International Journal of Molecular Sciences, 2022).
